Marks after values point to notes of the source that are not given here. Square brackets hold non-standard residues; d marks the D form. * marks the point of attachment. His(Trt) = N[C@@H](Cc1cn(C(c2ccccc2)(c2ccccc2)c2ccccc2)cn1)C(=O)O; Pbf = Cc1c(C)c(S(=O)(=O)*)c(C)c2c1OC(C)(C)C2; code Z = not defined here; Cbz = O=C(OCc1ccccc1)*; Boc = CC(C)(C)OC(=O)*; OtBu = CC(C)(C)O*; tBu = CC(C)(C)*
Columns and labels:
Assay type in all cases: biochemical
Alcalase CLEA [1] = molecular target: T1, Alcalase CLEA (Bacillus licheniformis, UniProt P00780); assay: Hydrolysis of tetrapeptide tert-butyl ester by Alcalase CLEA in NMP/buffer (Example 2); details: 0.05 mmol, 5 mg Alcalase CLEA, NMP/phosphate buffer pH 8 1:1, 40° C., 17 h
T1 construct: purchased CLEA Technologies B. V., Delft, The Netherlands
T1 sequence (P00780 106-379): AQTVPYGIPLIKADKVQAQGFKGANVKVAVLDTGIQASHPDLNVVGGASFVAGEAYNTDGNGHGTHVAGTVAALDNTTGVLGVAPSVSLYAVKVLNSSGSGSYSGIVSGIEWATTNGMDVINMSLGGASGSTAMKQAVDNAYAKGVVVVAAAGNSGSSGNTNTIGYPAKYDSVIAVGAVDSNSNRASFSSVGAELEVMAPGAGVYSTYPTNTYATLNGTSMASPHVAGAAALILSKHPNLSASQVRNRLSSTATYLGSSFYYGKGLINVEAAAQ
Experimental: 0.05 mmol of Boc-Gly-Phe-Phe-Leu-OBu^t was dissolved in a thermostated mixture of 2.5 ml NMP and 2.5 ml phosphate buffer 0.1M pH 8. To this solution 5 mg of Alcalase CLEA were added. The reaction mixture was incubated at 40° C. for a total of 17 hours. Substrate conversion is determined by HPLC. The reaction resulted after 17 h in >95% yield of Boc-Gly-Phe-Phe-Leu-OH.

Alcalase CLEA [2] = molecular target: T1, Alcalase CLEA; assay: Identification of peptide substrates susceptible to endopeptidic cleavage (Example 5)
Experimental: General procedure Alcalase CLEA:
0.1 mmol of each of the tetrapeptides (or tetrapeptide mixtures) were dissolved in 2.5 ml DMF. To this solution 5 mg of enzyme were added along with 2.5 ml phosphate buffer 0.1 M pH 7 and were added to the previous solution. The reaction mixture was incubated at 40° C. Reaction mixtures were analysed after 2 hours and 6 hours by HPLC. In case the reaction had not reached completion additional portions of enzyme [5 mg each] were added at the end of six hours and overnight (approx. 24 hours of reaction). The last aliquot was analysed by LC/MS to verify the presence of the desired compound and of any impurities being Z-Val-Val-X-OH and/or H-X-Leu-OH.

[3] = molecular target: T2, subtilisin A (S. Carlsberg) (Bacillus licheniformis, UniProt P00780); assay: Hydrolysis of C-terminal tert-butyl esters by free subtilisin A (Example 1); details: 0.1 mmol peptide, 5 mg enzyme, DMF/phosphate buffer 0.1 M 1:1, 40° C., 2 hours, HPLC
T2 construct: purchased Sigma Aldrich
T2 sequence (P00780 106-379): T1 sequence (P00780 106-379)
Experimental: (§1) General Procedure Subtilisin A:
0.1 mmol of each of the peptides was dissolved in a thermostated mixture of 2.5 ml DMF and 2.5 ml phosphate buffer 0.1 M pH 7.5 mg of enzyme were added to the peptide solution. The reaction mixture was incubated at 40° C. for a total of two hours. The reaction mixtures were analysed after 2 hours using HPLC.

Alcalase CLEA [4] = molecular target: T1, Alcalase CLEA; assay: Deprotection of model dipeptides by Alcalase CLEA (Example 3); details: 0.1 mmol, 5 mg enzyme, 50 v/v % DMF/phosphate buffer pH 7, 40° C., 6 hours
Text: A person skilled in the art can easily identify suitable substrates, for instance by performing a simple test hydrolysis of a selected peptide comprising a C-terminal tert-butyl ester functionality under suitable conditions as described herein before and following conversion e.g. by HPLC techniques. It has been found by hydrolysis of model dipeptides of the general structure Z-Val-X-OBu^t in the presence of Alcalase CLEA and 50% v/v of DMF (see for details Example 3) that the reactivity for these model substrates comprising a C-terminal tert-butyl ester functionality can be divided into four categories:
General Procedure Alcalase CLEA:
0.1 mmol of each of the peptides was dissolved in 2.5 ml DMF. To this solution 5 mg of enzyme were added along with 2.5 ml phosphate buffer 0.1M pH 7. The reaction mixture was incubated at 40° C. for a total of six hours. The reaction mixtures were analysed after 6 hours using HPLC and LC/MS.

Subtilisin A [5] = molecular target: T3, Subtilisin A (Bacillus licheniformis, UniProt P00780); assay: Deprotection of model dipeptides by Subtilisin A (Example 3); details: 0.1 mmol, 5 mg enzyme, 50 v/v % DMF/phosphate buffer pH 7, 40° C., 6 hours
T3 construct: purchased Novozymes
T3 sequence (P00780 106-379): T1 sequence (P00780 106-379)
Experimental: as §1
0.1 mmol of each of the peptides was dissolved in 2.5 ml DMF. 5 mg of enzyme were dissolved in 2.5 ml phosphate buffer 0.1 M pH 7 and were added to the peptide solution. The reaction mixture was incubated at 40° C. for a total of six hours. The reaction mixtures were analysed after 6 hours using HPLC and LC/MS.

Subtilisin A [6] = molecular target: T3, Subtilisin A; assay: Optimization of the amount of enzyme (Example 4); details: 2 h
Experimental: 0.1 mmol of each of the peptides was dissolved in 2.5 ml IDMF. Subtilisin A was dissolved in 2.5 ml phosphate buffer 0.1 M pH 7 and added to the peptide solution. The reaction mixture was incubated at 40° C. The reaction mixtures were sampled at the indicated reaction times and analysed by HPLC. When needed extra portions of enzyme were added at 2-hour intervals.

Alcalase CLEA [7] = molecular target: T1, Alcalase CLEA; assay: Scaling up of the procedure (Example 6); details: 1 mmol, 3x25 mg Alcalase CLEA, 50% DMF, pH 7, 40° C., 6 days
Experimental: To a stirred solution of 606 mg (1 mmol) Z-Val-Trp-Leu-OBu^t in 25 ml DMF 25 mg of Alcalase CLEA were added along with 25 ml of phosphate buffer 0.1 M pH 7. The mixture was stirred at 40° C. The reaction progress was monitored by HPLC. Extra portions of enzyme (25 mg of Alcalase CLEA each) were added after 24 hours and after 48 hours. After 6 days the reaction was stopped. The reaction mixture was acidified to pH 2 and DMF was evaporated. The product was extracted with ethyl acetate. The organic layer was dried using sodium sulphate, concentrated in vacuo and the final product precipitated from heptane.

[8] = 48 h, extra 5 mg enzyme portions after 6 h and approx. 24 h
[9] = 24 h, extra 5 mg enzyme after 6 h
[10] = 2 h, 5 mg Alcalase CLEA, 50% DMF, pH 7, 40° C.

Boc-Gly-Phe-Phe-Leu-OBu^t (Boc-GFFL-OtBu; SMILES CC(C)C[C@H](NC(=O)[C@H](Cc1ccccc1)NC(=O)[C@H](Cc1ccccc1)NC(=O)CNC(=O)OC(C)(C)C)C(=O)OC(C)(C)C)
yield of Boc-Gly-Phe-Phe-Leu-OH (substrate conversion by HPLC) (Alcalase CLEA [1]): > 95%

Cbz-VVE(OtBu)L-OtBu
Ratio Desired Product vs. Substrate (% area) (Alcalase CLEA [2]; [8]): 100/0

Cbz-VVK(Boc)L-OtBu
Ratio Desired Product vs. Substrate (% area) (Alcalase CLEA [2]; [8]): 100/0

Cbz-VVR(Pbf)L-OtBu
Ratio endopeptidase Impurity vs. Desired Product (% area), impurity H-X-Leu-OH (Alcalase CLEA [2]; 24 h): 1/99 (H-X-Leu-OH) | Ratio Desired Product vs. Substrate (% area) (Alcalase CLEA [2]; [8]): 100/0

Cbz-VVRL-OtBu
Ratio Desired Product vs. Substrate (% area) (Alcalase CLEA [2]; 6 h): 100/0 ^1)

Cbz-VVVL-OtBu
Ratio Desired Product vs. Substrate (% area) (Alcalase CLEA [2]; 6 h): 100/0 ^1) | Ratio Desired Product vs. Substrate (% area) (Alcalase CLEA [2]; [9]): 100/0 ^1) | Ratio Desired Product vs. Substrate (% area) (Alcalase CLEA [2]; [8]): 100/0

Cbz-VVW(Boc)L-OtBu
Ratio Desired Product vs. Substrate (% area) (Alcalase CLEA [2]; [10]): 3/97 | Ratio Desired Product vs. Substrate (% area) (Alcalase CLEA [2]; [8]): 100/0

Cbz-Val-Ala-OtBu
Product/Substrate (% area) [3]: 100/0 | Product vs. Substrate (% area), Alcalase CLEA (Alcalase CLEA [4]): 100/0 | Product vs. Substrate (% area), Subtilisin A (Subtilisin A [5]): 100/0

Cbz-Val-Asn-OtBu
Product vs. Substrate (% area), Alcalase CLEA (Alcalase CLEA [4]): 100/0

Cbz-Val-Gln-OtBu
Product vs. Substrate (% area), Alcalase CLEA (Alcalase CLEA [4]): 100/0 | Product vs. Substrate (% area), Subtilisin A (Subtilisin A [5]): 100/0

Cbz-Val-Ile-OtBu
Product vs. Substrate (% area), Alcalase CLEA (Alcalase CLEA [4]): traces of product | Product vs. Substrate (% area), Subtilisin A (Subtilisin A [5]): 0/100

Cbz-Val-Leu-OtBu
Product vs. Substrate (% area), Alcalase CLEA (Alcalase CLEA [4]): 98/2 | Product vs. Substrate (% area), Subtilisin A (Subtilisin A [5]): 100/0 | Product vs. Substrate (% area) (Subtilisin A [6]; 2.5 mg enzyme): 100/0 | Product vs. Substrate (% area) (Subtilisin A [6]; 5 mg enzyme): 100/0

Cbz-Val-Met-OtBu
Product vs. Substrate (% area), Subtilisin A (Subtilisin A [5]): 100/0

Cbz-Val-Pro-OtBu
Product vs. Substrate (% area), Alcalase CLEA (Alcalase CLEA [4]): 0/100 | Product vs. Substrate (% area), Subtilisin A (Subtilisin A [5]): 0/100

Cbz-Val-Ser-OtBu
Product vs. Substrate (% area), Subtilisin A (Subtilisin A [5]): 100/0

Cbz-Val-Thr(tBu)-OtBu
Product vs. Substrate (% area), Alcalase CLEA (Alcalase CLEA [4]): 0/100 | Product vs. Substrate (% area), Subtilisin A (Subtilisin A [5]): 0/100

Cbz-Val-Trp-Leu-OtBu
endopeptidase-related impurities in the final compound (HPLC and LC/MS) (Alcalase CLEA [7]): No endopeptidase-related impurities were identified

Cbz-Val-[His(Trt)]-OtBu
Product vs. Substrate (% area), Alcalase CLEA (Alcalase CLEA [4]): 0/100 | Product vs. Substrate (% area), Subtilisin A (Subtilisin A [5]): 0/100

Z-Val-Val-Ala-Leu-OBu^t ({code Z}-VVAL-OtBu; reading uncertain; also: printed as Z-Val-Val-Ala-Leu-OBu^t) [model tetrapeptide Z-Val-Val-X-Leu-OBu^t, X=Ala, tested in mix A]
Ratio Desired Product vs. Substrate (% area) (Alcalase CLEA [2]; 6 h): 100/0 ^1)

Z-Val-Val-Asn-Leu-OBu^t ({code Z}-VVNL-OtBu; reading uncertain; also: printed as Z-Val-Val-Asn-Leu-OBu^t) [model tetrapeptide Z-Val-Val-X-Leu-OBu^t, X=Asn, tested in mix B]
Ratio Desired Product vs. Substrate (% area) (Alcalase CLEA [2]; [10]): 100/0 | Ratio Desired Product vs. Substrate (% area) (Alcalase CLEA [2]; 6 h): 100/0 | Ratio Desired Product vs. Substrate (% area) (Alcalase CLEA [2]; [9]): 100/0 | Ratio Desired Product vs. Substrate (% area) (Alcalase CLEA [2]; [8]): 100/0

Z-Val-Val-Gln-Leu-OBu^t ({code Z}-VVQL-OtBu; reading uncertain; also: printed as Z-Val-Val-Gln-Leu-OBu^t) [model tetrapeptide Z-Val-Val-X-Leu-OBu^t, X=Gln, tested in mix A]
Ratio Desired Product vs. Substrate (% area) (Alcalase CLEA [2]; 6 h): 100/0 ^1)

Z-Val-Val-Leu-Leu-OBu^t ({code Z}-VVLL-OtBu; reading uncertain; also: printed as Z-Val-Val-Leu-Leu-OBu^t) [model tetrapeptide Z-Val-Val-X-Leu-OBu^t, X=Leu, tested in mix A]
Ratio Desired Product vs. Substrate (% area) (Alcalase CLEA [2]; 6 h): 100/0 ^1)

Z-Val-Val-Met-Leu-OBu^t ({code Z}-VVML-OtBu; reading uncertain; also: printed as Z-Val-Val-Met-Leu-OBu^t)
Ratio endopeptidase Impurity vs. Desired Product (% area), impurity Z-Val-Val-X-OH (Alcalase CLEA [2]; 24 h): 72/28 (Z-Val-Val-X-OH) | Ratio Desired Product vs. Substrate (% area) (Alcalase CLEA [2]; [9]): 100/0

Z-Val-Val-Phe-Leu-OBu^t ({code Z}-VVFL-OtBu; reading uncertain; also: printed as Z-Val-Val-Phe-Leu-OBu^t) [model tetrapeptide Z-Val-Val-X-Leu-OBu^t, X=Phe, tested in mix B]
Ratio Desired Product vs. Substrate (% area) (Alcalase CLEA [2]; [10]): 23/77 | Ratio Desired Product vs. Substrate (% area) (Alcalase CLEA [2]; 6 h): 81/19 | Ratio Desired Product vs. Substrate (% area) (Alcalase CLEA [2]; [8]): 100/0

Z-Val-Val-Ser-Leu-OBu^t ({code Z}-VVSL-OtBu; reading uncertain; also: printed as Z-Val-Val-Ser-Leu-OBu^t) [model tetrapeptide Z-Val-Val-X-Leu-OBu^t, X=Ser, tested in mix A]
Ratio Desired Product vs. Substrate (% area) (Alcalase CLEA [2]; 6 h): 100/0 ^1)

Z-Val-Val-Trp-Leu-OBu^t ({code Z}-VVWL-OtBu; reading uncertain; also: printed as Z-Val-Val-Trp-Leu-OBu^t) [model tetrapeptide Z-Val-Val-X-Leu-OBu^t, X=Trp, tested in mix D]
Ratio endopeptidase Impurity vs. Desired Product (% area), impurity H-X-Leu-OH (Alcalase CLEA [2]; 24 h): 2/98 (H-X-Leu-OH) | Ratio endopeptidase Impurity vs. Desired Product (% area), impurity H-X-Leu-OH (Alcalase CLEA [2]; 48 h): 6/94 (H-X-Leu-OH)

Z-Val-Val-Tyr-Leu-OBu^t ({code Z}-VVYL-OtBu; reading uncertain; also: printed as Z-Val-Val-Tyr-Leu-OBu^t) [model tetrapeptide Z-Val-Val-X-Leu-OBu^t, X=Tyr, tested in mix B]
Ratio Desired Product vs. Substrate (% area) (Alcalase CLEA [2]; [8]): 100/0
